In patent US20180169136A1, “USE OF PHARMACEUTICAL COMPOSITION IN PREPARATION OF DRUG FOR PROMOTING CHONDROCYTE GENERATION” (KAOHSIUNG MEDICAL UNIVERSITY, priority 2015, published 2018):
Several values for one entry are separate records, joined by “and”; a condition that tells them apart may be missing. Identical values can stand only once.

Assays:
BMP-2 = assay: real-time PCR, BMP-2 gene expression in hADSCs in HA-coated or non-coated wells; format: cell-based, human; details: relative to Non-HA group day 1 = 1, simvastatin 1 μM, HA 1%
Description: Human adipose-derived stem cells (hADSCs) were cultured in wells coated with hyaluronic acid (HA) and without hyaluronic acid (non-HA), and treated with or without 1 μM of simvastatin (SIM) for 1 to 5 days. The present invention was therefore divided into four experimental groups: (1) No hyaluronic acid (Non-HA) group: human adipose-derived stem cells were cultured in wells not coated with hyaluronic acid and not treated with simvastatin (1 μM); (2) No hyaluronic acid plus simvastatin (Non-HA+Sim) group: human adipose-derived stem cells were cultured in wells not coated with hyaluronic acid but treated with simvastatin (1 μM); (3) Hyaluronic acid (HA) group: human adipose-derived stem cells were cultured in wells coated with hyaluronic acid but not treated with simvastatin (1 μM); and (4) Hyaluronic acid plus simvastatin (HA+Sim) group: human adipose-derived stem cells were cultured in wells coated with hyaluronic acid and treated with simvastatin (1 μM).
Cells were harvested on designated days and analyzed for the expression of BMP-2 and chondrogenic genes using real-time PCR. Total RNA of these cells was extracted by following the manufacturer's instructions and using TRIzol reagent (Gibco BRL, Rockville, Md.). In short, a reaction volume of 20 μl was taken which contained 0.5 to 1 μg of total RNA, and then RNA was reverse-transcribed into cDNA by using the SuperScript First-Strand Synthesis System (Invitrogen). Real-time PCR reactions were performed and monitored by using iQTM SYBR Green® supermix (Bio-Rad Laboratories Inc, Hercules, Calif.) and a quantitative real-time PCR detection system (Bio-Rad Laboratories Inc, Hercules, Calif.). […] The expression level of each of the target genes, as previously described, was calculated as 2-ΔΔCt. For each gene of interest, four readings were performed for each of the experimental samples, each experiment was repeated for at least three times. […]

osteocalcin = assay: real-time PCR, osteocalcin gene expression in hADSCs in HA-coated or non-coated wells; format: cell-based, human; details: day 1 to day 5; relative to Non-HA group day 1 = 1; simvastatin 1 μM
Description: (§1) Human adipose-derived stem cells (hADSCs) were cultured in wells coated with hyaluronic acid (HA) and without hyaluronic acid (non-HA), and treated with or without 1 μM of simvastatin (SIM) for 1 to 5 days. […]
(§2) Cells were harvested on designated days and analyzed for the expression of BMP-2 and chondrogenic genes using real-time PCR. […] Real-time PCR reactions were performed and monitored by using iQTM SYBR Green® supermix (Bio-Rad Laboratories Inc, Hercules, Calif.) and a quantitative real-time PCR detection system (Bio-Rad Laboratories Inc, Hercules, Calif.). […] The expression level of each of the target genes, as previously described, was calculated as 2-ΔΔCt. For each gene of interest, four readings were performed for each of the experimental samples, each experiment was repeated for at least three times. […]

aggrecan = assay: real-time PCR, chondrogenic gene aggrecan in hADSCs in HA-coated or non-coated wells; format: cell-based, human; details: 1 μM simvastatin, with or without 1% HA coating, 1 to 5 days
Description: as §1, §2

Sox-9 = assay: real-time PCR, chondrogenic gene Sox-9 in hADSCs in HA-coated or non-coated wells; format: cell-based, human; details: 1 μM simvastatin, with or without 1% HA coating, 1 to 5 days
Description: as §1, §2

Col II = assay: real-time PCR, chondrogenic gene Col II in hADSCs in HA-coated or non-coated wells; format: cell-based, human; details: 1 μM simvastatin, with or without 1% HA coating, 1 to 5 days
Description: as §1, §2

[1] = system: human adipose-derived stem cells (hADSCs); assay: sGAG formation (DMMB analysis) in hADSCs cultured in wells coated with or without hyaluronic acid; format: cell-based; details: day 7, standardized with DNA
Description: Sulfated glycosaminoglycan (sGAG) is a major extracellular matrix of articular cartilage. In order to test whether simvastatin can promote the expression of sGAG in human adipose-derived stem cells (hADSCs) and its optimal concentration, the present invention first prepared hyaluronic acid (HA) coated wells by coating hyaluronic acid dissolved in 1 ml of phosphate buffer (PBS, 1% w/w) on a 24-well plate, standing at 37° C. for 48 hours, then washed with PBS two times. Human adipose-derived stem cells were seeded in wells containing 500 μl of basal medium at a density of 1×10^5 cells per well, wherein the basal medium contains Dulbecco's modified Eagle's medium (DMEM), and was additionally supplemented with 5% fetal bovine serum (FBS), 1% nonessential amino acids and 100 U/ml of penicillin/streptomycin (Gibco-BRL, Grand Island, N.Y.). During the culturing period, simvastatin at different concentrations (0.1 to 1 μM) was added to the well plate, and the medium was replaced with fresh one every two days. On day 7 after the cultivation started, cells were collected for dimethylmethylene blue (DMMB) analysis with Blyscan sulfated glycosaminoglycan reagent (Biocolor, Antrim, UK), and for standardization of sulfated glycosaminoglycan (sGAG) formation with DNA.

Question: What does the source list for `CCC(C)(C)C(=O)O[C@H]1C[C@@H](C)C=C2C=C[C@H](C)[C@H](CC[C@@H]3C[C@@H](O)CC(=O)O3)[C@H]21` [simvastatin]?
Answer: expression of BMP-2 gene (BMP-2; day 1): 1.2 fold; expression of BMP-2 gene (BMP-2; day 3): 0.8 fold; expression of BMP-2 gene (BMP-2; day 5, listed as Non-HA+Sim): 1.1 fold and 2.1 fold; expression of osteocalcin gene (osteocalcin): significantly increased; expression of chondrogenic gene aggrecan (aggrecan): failed to effectively enhance; expression of chondrogenic gene Sox-9 (Sox-9): failed to effectively enhance; expression of chondrogenic gene Col II (Col II): failed to effectively enhance; expression level of sGAG ([1]; absence of hyaluronic acid (Non-HA), simvastatin 0.1 μM): 0.5 µg/µg; expression level of sGAG ([1]; absence of hyaluronic acid (Non-HA), simvastatin 0.5 μM): 0.5 µg/µg; expression level of sGAG ([1]; absence of hyaluronic acid (Non-HA), simvastatin 1 μM): 0.7 µg/µg; expression level of sGAG ([1]; presence of 1% hyaluronic acid, simvastatin 0.1 μM): 1.3 µg/µg; expression level of sGAG ([1]; presence of 1% hyaluronic acid, simvastatin 0.5 μM): 2.5 µg/µg; expression level of sGAG ([1]; presence of 1% hyaluronic acid, simvastatin 1 μM): 2.8 µg/µg
